From patent US20180133148A1, “Degradable Microparticles for Protein and Small Molecule Delivery” (Georgia Tech Research Corporation, priority 2016, published 2018)

Columns and labels:
plasmin = test: Plasmin inhibition assay (TSG-6 anti-plasmin activity); assay type: biochemical
Protocol: To assess TSG-6 bioactivity after release from MPs, the plasmin inhibition assay protocol was followed with day 1 TSG-6 release supernatant (11 ng/mL) and compared to a soluble TSG-6 control at the same concentration (11 ng/mL); n=3-5.
Without wishing to be bound by theory, it may be that the sulfate groups removed, the N sulfate group for Hep^−N and the N and […] for Hep−, are necessary for complete heparin binding to TSG-6 and the subsequent enhancement of TSG-6 bioactivity.

[1] = system: articular cartilage of the medial tibial plateau; test: EPIC-μCT of tibial articular cartilage, medial meniscal transection model; assay type: in vivo, Sprague-Dawley rats
articular cartilage = test: Safranin-O histology of tibiae, medial meniscal transection model; assay type: in vivo, Sprague-Dawley rats; details: 3 weeks following MMT injury
From the text: Medial meniscal transection (MMT) injury was induced using a similar method to previously established protocols. Willett N. J. et al., Arthritis Res Ther. 2014; 16(1):R47. Male Sprague-Dawley rats (250-300 g initial weight and 8-10 weeks old) were used in accordance with protocols approved by the Georgia Institute of Technology Institutional Animal Care and Use Committee. Prior to surgery animals were anesthetized by 5% isoflurane (Isothesia), followed by 2-3% isoflurane during surgery and were administered sustained release buprenorphine as an analgesic. Next, a small incision was made through the skin on the medial aspect of the left femoral-tibial joint. The medial collateral ligament was exposed by blunt dissection and transected to visualize the joint space and medial meniscus. The meniscus was then transected completely at its narrowest point. The skin was sutured with 4.0 silk sutures (Ethicon) and then closed using wound clips.
For TSG-6 loaded MP treatment, MPs were loaded as described above but 3.6 mg MPs were resuspended in a total volume of 50 μL sterile 0.1 wt % BSA PBS solution and subsequently loaded into sterile syringes. 1, 7, and 15 days following MMT injury, MPs were delivered via intra-articular injection through the infrapatellar ligament and into the stifle joint of the left leg. For soluble TSG-6 controls, 16.7 μg TSG-6 was dissolved in a total volume of 50 μL sterile 0.1 wt % BSA PBS solution, loaded into sterile syringes, and delivered using the same method as TSG-6 loaded MPs. Overall, in vivo experimental groups included TSG-6 loaded MPs (18 μg TSG-6 loaded onto 10.8 mg MPs delivered over 3 time points; n=3), soluble TSG-6 (50 μg TSG-6 delivered over 3 time points; n=3) or injury only (no TSG-6 or MPs; n=4). Contralateral tibiae served as uninjured controls.
Following μCT, tibiae were decalcified in Cal-Ex II (Fisher) for 10 days, then processed for histology sectioning as described previously. Tellier L. E. et al. Localized SDF-1 Delivery Increases Pro-Healing Bone Marrow-Derived Cells in the Supraspinatus Muscle Following Severe Rotator Cuff Injury. […]

[2] = FTY720 loading and release from degradable heparin-based MPs (plate reader); assay type: physicochemical
Protocol: FTY720 was loaded onto degradable heparin-based MPs. The amount of FTY720 that was loaded onto the MPs was then assayed via plate reader. In three separate groups, additional amounts of FTY720, i.e. 5 μg, 10 μg and 20 μg, were then added. […] For each of the three separate groups, the extent of FTY720 release was assayed via plate reader each day over 7 days. […] The black line refers to the batch with 20 μg added. The dark blue line refers to the batch with 10 μg added. The light blue line refers to the batch with 5 μg added.

[3] = TSG-6 with soluble heparin derivative, or TSG-6 alone
[4] = 21 days following MMT injury, compared to uninjured control

Loading efficiency of FTY720 ([2]; of the originally added amount of FTY720, 5, 10, 20 μg added)	Total amount of FTY720 released from MPs ([2]; over 7 days, dependent on amount originally added) [µg]	Compound	Plasmin activity compared to plasmin control (plasmin; [3]) [%]	Plasmin activity compared to plasmin control (plasmin; day 1 release supernatant or soluble control, 11 ng/mL TSG-6) [%]	Cartilage fibrillation (contrast-enhanced μCT imaging) ([1]; 3 weeks following MMT injury)	Cartilage attenuation [1, 4] [×]	Cartilage thickness [1, 4] [×]	Cartilage volume [1, 4] [×]	Improvement of cartilage degeneration following injury (articular cartilage)	Proteoglycan loss (Safranin-O stained sections) (articular cartilage)	Safranin-O staining of GAG within cartilage (articular cartilage)	Effect on TSG-6 anti-plasmin activity compared to TSG-6 alone (plasmin; soluble heparin derivatives, in words)
		soluble TSG-6: human TNF-α-stimulated gene-6, positively charged 35 kDa protein (R&D Systems)	74.6±0.2	96.4±3.1	cartilage fibrillation is present	1.6±0.2	1.5±0.2	1.9±0.5	unable to improve cartilage degeneration	proteoglycan loss is observed	Less intense safranin-O staining was observed	
		fully desulfated heparin [Hep−, reference compound]	69.6±1.2									no significant effect
35-80%	0.5 to 5	CCCCCCCCc1ccc(CCC(N)(CO)CO)cc1 [FTY720]										
